Measurements as given in ChEMBL document CHEMBL1201862, “PubChem BioAssay data set” (2004).
Calls of active or inactive are those of the source.

Legend:
[1] = target: Eukaryotic translation initiation factor 4E (Mus musculus, UniProt P63073); assay: eIF4E–eIF4G protein interaction inhibitors, dose response, biochemical, TR-FRET (AID 855); format: functional;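 note: potency for disrupting eIF4E binding to eIF4GI seen as loss of FRET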
[2] = target: Induced myeloid leukemia cell differentiation protein Mcl-1 (Homo sapiens, UniProt Q07820); format: functional
Chain of Induced myeloid leukemia cell differentiation protein Mcl-1 (Q07820 whole entry): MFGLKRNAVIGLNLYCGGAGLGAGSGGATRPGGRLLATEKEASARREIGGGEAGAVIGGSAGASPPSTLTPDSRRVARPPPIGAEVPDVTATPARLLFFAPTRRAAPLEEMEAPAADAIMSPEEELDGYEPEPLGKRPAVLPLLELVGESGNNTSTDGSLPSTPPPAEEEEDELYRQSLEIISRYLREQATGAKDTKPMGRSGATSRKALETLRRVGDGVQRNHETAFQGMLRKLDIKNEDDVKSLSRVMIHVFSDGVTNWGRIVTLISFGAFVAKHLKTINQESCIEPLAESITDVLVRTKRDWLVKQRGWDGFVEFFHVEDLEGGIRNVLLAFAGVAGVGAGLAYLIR

[3] = target: FAD-linked sulfhydryl oxidase ALR (Homo sapiens, UniProt P55789); assay: inhibitors of human ALR sulfhydryl oxidase, dose response, biochemical, H2O2 detection, luminescence, cherry-pick (AID 493248)
Chain of FAD-linked sulfhydryl oxidase ALR (P55789 whole entry): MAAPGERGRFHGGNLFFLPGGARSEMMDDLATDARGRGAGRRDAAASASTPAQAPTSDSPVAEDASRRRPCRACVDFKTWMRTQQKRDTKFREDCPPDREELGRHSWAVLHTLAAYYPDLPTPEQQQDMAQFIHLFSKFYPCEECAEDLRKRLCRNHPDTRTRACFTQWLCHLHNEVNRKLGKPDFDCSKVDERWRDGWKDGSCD

SN12K1 = assay: cells; format: functional; conditions: Homo sapiens
[4] = target: T1, Polyadenylate-binding protein 1 (Homo sapiens, UniProt P11940); assay: PABP1 MLLE–PAM2 interaction inhibitors, dose response, miRNA deadenylation inhibitor project, biochemical, fluorescence polarization, Cy5-PAM2 peptide, secondary (AID 602260); format: functional; conditions: read-out: IC50_Mean
T1 sequence (P11940 whole entry): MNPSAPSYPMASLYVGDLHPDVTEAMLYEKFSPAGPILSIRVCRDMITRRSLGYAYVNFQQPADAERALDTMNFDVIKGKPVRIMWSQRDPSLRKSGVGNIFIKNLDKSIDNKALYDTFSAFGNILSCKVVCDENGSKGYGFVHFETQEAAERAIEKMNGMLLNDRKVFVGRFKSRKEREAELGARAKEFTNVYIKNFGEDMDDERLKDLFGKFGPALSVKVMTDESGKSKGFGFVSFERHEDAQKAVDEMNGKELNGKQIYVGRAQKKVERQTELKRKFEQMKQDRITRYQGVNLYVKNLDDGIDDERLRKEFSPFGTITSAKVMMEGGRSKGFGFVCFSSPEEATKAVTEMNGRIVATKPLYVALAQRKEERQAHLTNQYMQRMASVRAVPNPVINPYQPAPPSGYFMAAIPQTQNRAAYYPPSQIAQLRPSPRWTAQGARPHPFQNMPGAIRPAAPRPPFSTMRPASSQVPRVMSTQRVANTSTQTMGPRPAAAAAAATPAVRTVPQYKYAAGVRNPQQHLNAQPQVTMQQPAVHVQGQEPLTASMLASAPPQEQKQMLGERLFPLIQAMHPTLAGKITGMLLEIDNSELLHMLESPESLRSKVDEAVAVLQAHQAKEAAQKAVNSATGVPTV

[5] = target: T1, Polyadenylate-binding protein 1; assay: PABP1 MLLE–PAM2 binding inhibitor potency, dose response, biochemical, fluorescence polarization, FITC-PAM2 peptide (AID 602259); format: functional; conditions: read-out: IC50_Mean
cells [6] = format: functional, cell-based
cells [7] = format: functional, cell-based; remark: listed apart in the source
[8] = target: Glucose-6-phosphate 1-dehydrogenase (Homo sapiens, UniProt P11413); assay: human G6PD enzyme inhibitors, dose response, selectivity assay for P. falciparum G6PD inhibitor project, biochemical, fluorescence (AID 504792); format: functional
Chain of Glucose-6-phosphate 1-dehydrogenase (P11413 whole entry): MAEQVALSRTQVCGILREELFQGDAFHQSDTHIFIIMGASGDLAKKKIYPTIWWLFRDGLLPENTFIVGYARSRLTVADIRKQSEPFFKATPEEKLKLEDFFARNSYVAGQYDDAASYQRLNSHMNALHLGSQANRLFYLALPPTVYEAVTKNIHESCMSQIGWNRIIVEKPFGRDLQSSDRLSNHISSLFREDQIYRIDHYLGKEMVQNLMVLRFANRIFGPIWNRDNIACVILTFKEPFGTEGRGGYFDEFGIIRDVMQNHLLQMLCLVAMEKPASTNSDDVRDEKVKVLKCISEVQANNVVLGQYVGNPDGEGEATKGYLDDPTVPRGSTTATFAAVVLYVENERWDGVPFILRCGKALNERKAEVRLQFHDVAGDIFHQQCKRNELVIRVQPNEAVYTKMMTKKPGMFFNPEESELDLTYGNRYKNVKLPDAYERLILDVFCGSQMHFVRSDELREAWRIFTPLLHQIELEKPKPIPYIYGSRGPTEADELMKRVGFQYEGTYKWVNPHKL

[9] = target: Ras and Rab interactor 1/Tyrosine-protein kinase ABL1 (Homo sapiens, UniProt P00519+Q13671); format: functional;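 note: biochemical TR-FRET dose-response test measuring inhibition of binding between Rin1 and Abl proteins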
Nonstructural protein 1 = Nonstructural protein 1 (Influenza A virus, UniProt Q194T2); format: functional, Influenza A virus (A/California/07/2009(H1N1))
Chain of Nonstructural protein 1 (Q194T2 whole entry): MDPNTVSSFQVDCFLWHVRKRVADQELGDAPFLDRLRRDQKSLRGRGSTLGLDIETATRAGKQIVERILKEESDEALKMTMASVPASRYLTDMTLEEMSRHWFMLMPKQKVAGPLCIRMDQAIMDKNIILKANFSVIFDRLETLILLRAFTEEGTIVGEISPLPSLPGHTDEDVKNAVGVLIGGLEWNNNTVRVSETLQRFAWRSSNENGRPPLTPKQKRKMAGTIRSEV

[10] = microbe, parasite or virus in culture; format: functional; conditions: Mycobacterium tuberculosis
[11] = ZM109 Env clade C HIV-1 fusion inhibitors, dose response, HeLa effector, CEM target cells, luciferase, cherry-pick (AID 652058); format: functional, cell-based
[12] = inhibitors of clade B AD8 Env fusion, dose response, cell-based, cherry-pick (AID 652062); format: functional;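 note: luciferase signal from cell-cell fusion driven by HIV-1 clade B AD8 Env; potency is for inhibitors of fusion seen as a drop in luminescence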
P388/ADR = assay: cells; format: functional
[13] = inhibitors of HIV Env-driven cell fusion, dose response, cherry-pick (AID 652057); format: functional, cell-based
[14] = target: Voltage-dependent T-type calcium channel subunit alpha-1H (Homo sapiens, UniProt O95180); format: functional;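 note: channel activity triggered by adding a high calcium stimulation buffer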
Chain of Voltage-dependent T-type calcium channel subunit alpha-1H (O95180 whole entry): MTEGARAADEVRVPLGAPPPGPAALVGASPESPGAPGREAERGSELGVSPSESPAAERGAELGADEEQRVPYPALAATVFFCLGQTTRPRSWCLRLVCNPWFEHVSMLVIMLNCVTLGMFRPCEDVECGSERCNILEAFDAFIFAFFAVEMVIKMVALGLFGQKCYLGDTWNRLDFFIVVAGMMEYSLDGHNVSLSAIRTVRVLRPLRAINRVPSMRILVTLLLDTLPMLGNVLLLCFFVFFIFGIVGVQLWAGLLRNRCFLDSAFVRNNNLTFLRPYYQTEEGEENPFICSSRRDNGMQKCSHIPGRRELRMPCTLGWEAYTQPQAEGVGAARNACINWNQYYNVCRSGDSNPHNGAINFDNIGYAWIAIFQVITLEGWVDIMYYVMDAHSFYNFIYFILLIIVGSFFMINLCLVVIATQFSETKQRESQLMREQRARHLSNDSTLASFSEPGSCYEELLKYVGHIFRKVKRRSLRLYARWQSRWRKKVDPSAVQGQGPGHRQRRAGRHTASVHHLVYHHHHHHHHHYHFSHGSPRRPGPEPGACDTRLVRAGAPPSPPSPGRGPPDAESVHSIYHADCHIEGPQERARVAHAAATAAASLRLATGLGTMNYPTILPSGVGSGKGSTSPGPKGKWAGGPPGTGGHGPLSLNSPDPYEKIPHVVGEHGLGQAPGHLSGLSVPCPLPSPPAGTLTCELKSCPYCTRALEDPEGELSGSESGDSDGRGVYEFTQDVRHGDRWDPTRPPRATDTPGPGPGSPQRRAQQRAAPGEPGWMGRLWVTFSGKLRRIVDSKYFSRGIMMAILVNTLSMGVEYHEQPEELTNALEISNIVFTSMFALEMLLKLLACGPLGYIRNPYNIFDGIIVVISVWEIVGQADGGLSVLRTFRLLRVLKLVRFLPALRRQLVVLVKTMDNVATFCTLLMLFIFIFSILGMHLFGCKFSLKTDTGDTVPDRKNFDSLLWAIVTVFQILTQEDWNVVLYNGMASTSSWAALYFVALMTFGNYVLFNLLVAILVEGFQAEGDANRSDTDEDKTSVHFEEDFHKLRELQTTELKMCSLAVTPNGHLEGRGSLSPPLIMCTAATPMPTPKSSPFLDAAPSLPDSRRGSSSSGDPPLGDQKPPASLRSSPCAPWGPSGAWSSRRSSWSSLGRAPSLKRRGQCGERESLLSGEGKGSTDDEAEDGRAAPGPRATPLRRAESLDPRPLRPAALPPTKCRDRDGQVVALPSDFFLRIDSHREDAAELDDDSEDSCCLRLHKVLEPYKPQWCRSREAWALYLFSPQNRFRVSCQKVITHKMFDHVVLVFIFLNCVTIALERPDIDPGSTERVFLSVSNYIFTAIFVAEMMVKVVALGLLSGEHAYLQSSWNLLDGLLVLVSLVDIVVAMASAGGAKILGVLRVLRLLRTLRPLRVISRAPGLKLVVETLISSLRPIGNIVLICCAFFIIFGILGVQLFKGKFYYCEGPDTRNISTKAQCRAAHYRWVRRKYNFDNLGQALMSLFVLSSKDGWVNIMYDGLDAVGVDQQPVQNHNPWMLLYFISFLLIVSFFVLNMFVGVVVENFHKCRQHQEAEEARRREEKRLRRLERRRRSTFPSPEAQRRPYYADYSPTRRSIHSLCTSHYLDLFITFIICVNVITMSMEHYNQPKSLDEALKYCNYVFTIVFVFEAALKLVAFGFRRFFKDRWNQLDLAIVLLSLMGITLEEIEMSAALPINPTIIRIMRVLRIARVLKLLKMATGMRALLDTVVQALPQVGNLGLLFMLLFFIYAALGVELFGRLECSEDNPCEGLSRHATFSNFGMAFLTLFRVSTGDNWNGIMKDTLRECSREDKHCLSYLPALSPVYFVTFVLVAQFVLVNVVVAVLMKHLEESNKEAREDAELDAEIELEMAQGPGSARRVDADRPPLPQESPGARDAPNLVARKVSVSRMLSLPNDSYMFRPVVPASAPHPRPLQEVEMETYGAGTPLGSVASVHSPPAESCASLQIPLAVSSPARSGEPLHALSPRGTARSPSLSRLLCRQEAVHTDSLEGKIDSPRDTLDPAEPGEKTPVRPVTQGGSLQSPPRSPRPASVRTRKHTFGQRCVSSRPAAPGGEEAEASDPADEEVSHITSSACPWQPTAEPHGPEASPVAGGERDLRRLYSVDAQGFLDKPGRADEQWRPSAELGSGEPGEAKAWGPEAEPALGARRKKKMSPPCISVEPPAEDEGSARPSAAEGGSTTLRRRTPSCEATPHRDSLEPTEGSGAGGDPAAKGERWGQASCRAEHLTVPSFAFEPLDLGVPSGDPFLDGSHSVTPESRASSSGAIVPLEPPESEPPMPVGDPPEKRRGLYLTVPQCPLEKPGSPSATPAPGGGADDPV

HEK293 [15] = assay: cells; format: functional, cell-based; conditions: Homo sapiens
HEK293 [16] = assay: NOD2 signaling inhibitors in MDP-stimulated cells, cell-based, uHTS, luminescence (AID 2001); format: functional; conditions: Homo sapiens
HEK293 [17] = assay: cells; format: functional, cell-based; conditions: Homo sapiens; remark: listed apart in the source
HEK293 [18] = assay: NOD1 signaling inhibitors, primary screen, cell-based, luminescence, uHTS (AID 1578); format: functional; conditions: Homo sapiens
Cytochrome P450 2D6 = Cytochrome P450 2D6 (Homo sapiens, UniProt P10635);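 note: CYP2D6 member of a cytochrome P450 panel assay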
[19] = Luminescence Cell-Based Dose Response HTS to Identify Activators of Luciferase Translation or Activity in H4 […] Cells. [Related pubchem assays: 1829 (Project Summary), 1814 (Primary HTS)]; format: functional
H4 = assay: Luminescence Cell-Based Dose Response HTS to Identify Activators of 5'UTR Stem-Loop Driven Prion Protein mRNA Translation in H4 Neuroglioblastoma Cells. [Related pubchem assays: 1829 (Project Summary), 1814 (Primary HTS)]; format: functional; conditions: Homo sapiens
[20] = Luminescence Cell-Based Dose Confirmation HTS to Identify Activators of 5'UTR Stem-Loop Driven Alpha-Synuclein mRNA Translation in H4 Neuroglioblastoma Cells. [Related pubchem assays: 1829 (Project Summary), 1814 (Primary HTS)]; format: functional
[21] = cytotoxicity in OVCAR8 ovarian cancer cells, dose response, PAX8 project, cell-based, plate reader, dry powder samples (AID 743197); format: functional; conditions: OVCAR-8
Paired box protein Pax-8 = Paired box protein Pax-8 (Homo sapiens, UniProt Q06710); assay: inhibitors of PAX8-driven TPO luciferase reporter, dose response, RMG-I cells, cherry-pick (AID 687027); format: functional, cell-based;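 note: luciferase reporter driven by Pax8 target thyroperoxidase promoter measured by SteadyGlo luminescence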
Chain of Paired box protein Pax-8 (Q06710 whole entry): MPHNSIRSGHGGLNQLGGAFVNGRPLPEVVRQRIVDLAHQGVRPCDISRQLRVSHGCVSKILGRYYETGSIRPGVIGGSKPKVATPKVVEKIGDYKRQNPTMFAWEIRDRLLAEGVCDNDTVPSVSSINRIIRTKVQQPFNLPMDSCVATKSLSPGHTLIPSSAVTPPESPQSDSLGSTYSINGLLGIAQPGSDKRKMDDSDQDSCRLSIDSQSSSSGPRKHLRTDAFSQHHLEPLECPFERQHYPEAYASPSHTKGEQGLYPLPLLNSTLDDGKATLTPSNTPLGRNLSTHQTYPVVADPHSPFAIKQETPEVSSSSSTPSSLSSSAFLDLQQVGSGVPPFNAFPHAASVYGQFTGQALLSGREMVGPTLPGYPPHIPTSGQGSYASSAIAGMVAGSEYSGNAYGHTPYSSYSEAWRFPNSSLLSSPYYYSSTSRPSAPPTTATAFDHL

[22] = Shn3 3'UTR reporter inhibitors, dose response, cell-based, Clone20 osteoblasts, firefly luciferase, cherry-picked (AID 624132); format: functional;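 note: firefly luciferase luminescence from reporter carrying the Shn3 3'UTR in osteoblasts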
[23] = control 3'UTR Renilla luciferase suppression, dose response, counter-screen for Shn3 inhibitor project, cell-based, Clone20-Shn3RL, cherry-picked (AID 624133); format: functional
HEK293 [24] = assay: inhibitors of LMP1-driven NF-kB reporter, dose response, cell-based, HEK293, luciferase, cherry-pick (AID 588343); format: functional; conditions: Homo sapiens
[25] = target: T2, Corticotropin-releasing factor receptor 2/Corticotropin-releasing factor-binding protein (Homo sapiens, UniProt P24387+Q13324); assay: Dose Response confirmation of uHTS hits for small molecule antagonists of the CRF-binding protein and CRF-R2 receptor complex.; format: functional; conditions: read-out: IC50_Mean
T2 sequence (Q13324 whole entry): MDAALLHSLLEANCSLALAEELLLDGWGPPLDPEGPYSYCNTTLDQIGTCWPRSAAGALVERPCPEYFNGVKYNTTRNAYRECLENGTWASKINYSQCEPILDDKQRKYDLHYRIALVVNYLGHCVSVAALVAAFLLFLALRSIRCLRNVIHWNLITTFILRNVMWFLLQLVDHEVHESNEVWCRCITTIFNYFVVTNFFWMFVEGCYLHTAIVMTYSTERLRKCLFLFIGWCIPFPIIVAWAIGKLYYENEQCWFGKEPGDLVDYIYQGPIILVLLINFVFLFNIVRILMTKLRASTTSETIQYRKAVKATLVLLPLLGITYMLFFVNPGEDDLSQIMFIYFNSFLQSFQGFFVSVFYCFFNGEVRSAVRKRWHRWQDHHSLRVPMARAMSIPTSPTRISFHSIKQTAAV
T2 sequence (P24387 whole entry): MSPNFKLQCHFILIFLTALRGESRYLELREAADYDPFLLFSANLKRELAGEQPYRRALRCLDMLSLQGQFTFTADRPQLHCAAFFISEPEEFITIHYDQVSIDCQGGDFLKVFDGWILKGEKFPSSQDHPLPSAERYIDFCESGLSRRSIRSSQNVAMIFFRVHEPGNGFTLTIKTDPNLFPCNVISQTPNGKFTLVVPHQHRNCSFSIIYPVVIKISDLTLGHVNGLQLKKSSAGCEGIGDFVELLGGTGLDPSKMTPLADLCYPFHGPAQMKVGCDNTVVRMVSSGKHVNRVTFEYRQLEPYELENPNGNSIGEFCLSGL

[26] = target: T2, Corticotropin-releasing factor receptor 2/Corticotropin-releasing factor-binding protein; assay: activators of CRF receptor 2 with binding protein – uHTS hits, confirmation (AID 602473); format: functional; conditions: read-out: EC50_Mean

Chain of Eukaryotic translation initiation factor 4E (P63073 whole entry): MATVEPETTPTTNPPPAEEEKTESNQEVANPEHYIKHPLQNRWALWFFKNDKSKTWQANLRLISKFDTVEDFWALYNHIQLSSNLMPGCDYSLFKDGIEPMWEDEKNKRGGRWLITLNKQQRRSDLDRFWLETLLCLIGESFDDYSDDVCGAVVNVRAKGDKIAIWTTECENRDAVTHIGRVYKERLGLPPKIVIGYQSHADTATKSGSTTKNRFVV

Cc1c(NC(=O)c2cc(CC(C)C)on2)c(=O)n(-c2ccccc2)n1C
IC50 [1]: > 64 µM (inactive)

COc1cccc2c(S)c(CCC(C)=O)c(C)nc12
IC50 [2]: < 0.4 µM (active)

COc1ccc(N2CCN(C(=O)CCNC(=O)Cn3ccc4ccccc4c3=O)CC2)cc1
IC50 [1]: 50 µM (inactive) | AC50 [3]: 8.16 µM (active)

CCOC(=O)c1cc(Cl)ccc1OC(N)=O
GI50 (SN12K1): > 100 µM (inactive)

Cc1ccc(N2C(S)=NC3c4cc(Cl)ccc4OC2(C)C3C(=O)N(C)C)cc1 (stereo unspecified)
IC50 [4]: > 66 µM (inactive) | IC50 [5]: > 66 µM (inactive)

Cc1noc(C(=O)Nc2sc3c(c2C#N)CCC3)c1Cl
EC50 (cells [6]): 57 µM (active) | EC50 (cells [7]): > 350 µM (not active) | IC50 [8]: 47.5 µM (inactive)

CCCCN1C(=O)NC2NC(=O)NC21 (stereo unspecified)
IC50 [9]: 0.905 µM (active) | IC50 (Nonstructural protein 1): > 100 µM (active)

COc1ccc(NC(=O)c2ccc(Cl)c(S(=O)(=O)N3CCc4ccccc4C3)c2)cn1
CC50 [10]: > 40 µM (active) | AC50 [11]: 1.95 µM (active) | AC50 [12]: 19.4 µM (active)

[O-][N+](=Cc1ccccc1)c1ccc(Cl)cc1
IC50 [8]: 57 µM (inactive)

C=C1CC2CC[C@@]34C[C@H]5O[C@@H]6C(O[C@H]7CC[C@H](CC(=O)OC8[C@H](C)C9OC%10C[C@]%11(C[C@@H]%12O[C@]%13(C[C@H](C)[C@@H]%14O[C@H]([C@H](O)C[C@H](O)CO)C[C@@H]%14O%13)C[C@H](C)[C@@H]%12O%11)OC%10CC9O[C@H]8C[C@H]8O[C@H](CC[C@@H]1O2)C[C@@H](C)C8=C)O[C@H]7[C@@H]6O3)[C@@H]5O4 (stereo partly specified)
GI50 (P388/ADR; Mus musculus, P388/ADR): 0.000255 µM (active)

COc1ccc(OCC(=O)Nc2nnc(-c3ccco3)s2)cc1
IC50 [2]: 2.82 µM (active)

Cc1ccc(S(=O)(=O)N(C)C[C@@H]2Oc3ncc(-c4cc5ccccc5o4)cc3C(=O)N([C@H](C)CO)C[C@@H]2C)cc1
AC50 [13]: 17.3 µM (active) | AC50 [12]: 36.2 µM (active)

Cc1nn(Cc2ccccc2)c(C)c1NC(=O)c1cc(-c2cccs2)on1
EC50 [14]: 2.71 µM (active)

COC(=O)c1scc(C#N)c1N/N=C(\C#N)S(=O)(=O)c1ccc(Cl)cc1
IC50 (HEK293 [15]): > 20 µM (inactive) | IC50 (HEK293 [16]): 18.8 µM (inactive) | IC50 (HEK293 [17]): > 20 µM (inactive) | EC50 (HEK293 [18]): 6.08 µM (active)

CCN(CC)CC[n+]1ccc2c(C)c3[nH]c4ccccc4c3c(C)c2c1
GI50 (P388/ADR): 19.1 µM (inactive) | GI50 (SN12K1): 0.124 µM (active) | AC50 (Cytochrome P450 2D6): 3.16 µM (inconclusive)

Cc1ccc(CNC(=O)Cn2cccc2C(=O)c2ccccc2)cc1
EC50 [14]: 3.77 µM (active)

COc1ccccc1N(C(=O)c1snc(C(N)=O)c1N)C(C(=O)NCc1ccccc1)c1ccc(O)cc1 (stereo unspecified)
IC50 [9]: 50 µM (inactive)

Nc1cc(Nc2ccc(Br)cc2)nc(N)n1
EC50 [19]: 17.4 µM (active) | IC50 [4]: > 66 µM (inactive) | EC50 (H4): 11.3 µM (active) | IC50 [5]: 55.4 µM (inactive) | EC50 [20]: > 120 µM (not active)

Cc1ccc(-n2c(Cc3cccn3C)nnc2SCC(=O)NCc2ccc3c(c2)OCO3)cc1
EC50 [14]: 1.31 µM (active)

CN(CCC(=O)c1ccccc1)CCC(=O)c1ccccc1
IC50 [4]: > 66 µM (inactive) | IC50 [5]: > 66 µM (inactive)

COc1ccccc1CN(C)C(=O)CN1CCN(C(=O)c2cccs2)CC1
AC50 [11]: 32.8 µM (active)

NC(=O)c1nn(CC(=O)Nc2ccc3c(c2)OCO3)cc1[N+](=O)[O-]
IC50 [2]: 15.3 µM (not active)

Cc1ccc(S(=O)(=O)Nc2ccc3c(c2)C(=O)N([C@@H](C)CO)C[C@H](C)[C@@H](CN(C)Cc2ccc(Cl)c(Cl)c2)OCCCC[C@@H](C)O3)cc1
AC50 [21]: > 70 µM (inactive) | AC50 (Paired box protein Pax-8): 5.22 µM (active)

CCSc1nc2cc(S(=O)(=O)N3CCOCC3)ccc2o1
IC50 [8]: > 80 µM (inactive)

CS(=O)(=O)N(CC(=O)N1CCN(c2ccccc2)CC1)c1ccc(Cl)c(C(F)(F)F)c1
EC50 [14]: 5.13 µM (active)

COc1ccc(CN(C)CCCn2ccc(NC(=O)OCc3ccccc3)nc2=O)cc1OC
IC50 [9]: 23.5 µM (inactive)

CCc1ccc(OS(=O)(=O)c2cn(C)c(=O)n(C)c2=O)cc1
IC50 [4]: > 66 µM (inactive) | IC50 [5]: > 66 µM (inactive)

COc1ccc(NC(=S)NC2CCS(=O)(=O)C2)cc1 (stereo unspecified)
IC50 [1]: > 64 µM (inactive)

O=C(O)CCCN1C(=O)C(O)=C(C(=O)c2ccc(Cl)cc2)C1c1ccccc1 (stereo unspecified)
IC50 [4]: > 66 µM (inactive) | IC50 [5]: > 66 µM (inactive)

COc1ccc(NS(=O)(=O)c2ccc(NC(=O)C(CCSC)NC(N)=O)cc2)cc1 (stereo unspecified)
AC50 [22]: > 70 µM (inactive) | AC50 [23]: 26.9 µM (active)

CN(C)c1ccc(CC(=O)c2nc3ccccc3s2)cc1
IC50 [2]: 2.73 µM (active)

Oc1nncc(N/N=C/C=C/c2ccccc2)n1
AC50 (HEK293 [24]): 7.38 µM (active) | IC50 [25]: > 47.1 µM (inactive) | EC50 [26]: > 53 µM (inactive)

CC(=O)NC(c1ccco1)c1ccc2cccnc2c1O (stereo unspecified)
IC50 (HEK293 [15]): > 20 µM (inactive) | IC50 (HEK293 [16]): > 20 µM (inactive) | IC50 (HEK293 [17]): > 20 µM (inactive) | EC50 (HEK293 [18]): > 20 µM (inactive) | IC50 (Nonstructural protein 1): 12.5 µM (active)
